Reference: ChEMBL document CHEMBL5523727, “Discovery of KT-413, a Targeted Protein Degrader of IRAK4 and IMiD Substrates Targeting MYD88 Mutant Diffuse Large B-Cell Lymphoma” (J Med Chem, 2024)

Key:
[1] = target: Protein cereblon/Interleukin-1 receptor-associated kinase 4 (Homo sapiens, UniProt Q96SW2+Q9NWZ3); assay: Binding affinity to CRBN/IRAK4 […] assessed as dissociation constant by DiscoverX Kd Elect assay
[2] = target: Protein cereblon (Homo sapiens, UniProt Q96SW2); assay: Binding affinity to CRBN (unknown origin) by HTRF assay
[3] = target: Protein cereblon/Interleukin-1 receptor-associated kinase 4 (Homo sapiens, UniProt Q9NWZ3+Q96SW2); assay: PROTAC activity at CRBN/IRAK4 in human OCI-Ly10 cells assessed as induction of IRAK4 degradation measured after 24 hrs by MSD assay; format: cell-based
[4] = tested on: OCI-Ly10; assay: Antiproliferative activity against human OCI-Ly10 cells measured after 4 days by CellTiter-Glo Luminescent Cell Viability Assay; format: functional, cell-based
[5] = target: Cereblon/Ikaros (Homo sapiens, UniProt Q96SW2+Q13422); assay: PROTAC activity at CRBN/Ikaros in human OCI-Ly10 cells assessed as induction of Ikaros degradation measured after 24 hrs by MSD assay; format: cell-based
[6] = Passive permeability of the compound in wild type MDCK cells across apical to basolateral side at 1 uM measured for 120 mins by LC-MS/MS analysis; format: ADME, cell-based, Canis lupus familiaris; conditions: dog, read-out: permeability
[7] = Metabolic stability in rat liver microsomes assessed as intrinsic clearance at 1 uM measured upto 60 mins in presence of NADPH by UPLC/MS-MS analysis; format: ADME, Microsome; conditions: read-out: CLH
[8] = Metabolic stability in human liver microsomes assessed as intrinsic clearance at 1 uM measured upto 60 mins in presence of NADPH by UPLC/MS-MS analysis; format: ADME, Microsome; conditions: read-out: CLH
[9] = Oral bioavailability in rat at 10 mg/kg by LC-MS/MS analysis; format: ADME, organism-based; conditions: in vivo, po, 10 mg/kg
[10] = Volume of distribution at steady state in rat at 2 mg/kg, iv by LC-MS/MS analysis; format: ADME, organism-based; conditions: in vivo, read-out: Vdss
[11] = AUC in rat at 10 mg/kg, po by LC-MS/MS analysis; format: ADME, organism-based; conditions: in vivo, po, 10 mg/kg
[12] = Half life in rat at 2 mg/kg, iv by LC-MS/MS analysis; format: ADME, organism-based; conditions: in vivo

Cereblon/Ikaros, sequence (Q96SW2 whole entry): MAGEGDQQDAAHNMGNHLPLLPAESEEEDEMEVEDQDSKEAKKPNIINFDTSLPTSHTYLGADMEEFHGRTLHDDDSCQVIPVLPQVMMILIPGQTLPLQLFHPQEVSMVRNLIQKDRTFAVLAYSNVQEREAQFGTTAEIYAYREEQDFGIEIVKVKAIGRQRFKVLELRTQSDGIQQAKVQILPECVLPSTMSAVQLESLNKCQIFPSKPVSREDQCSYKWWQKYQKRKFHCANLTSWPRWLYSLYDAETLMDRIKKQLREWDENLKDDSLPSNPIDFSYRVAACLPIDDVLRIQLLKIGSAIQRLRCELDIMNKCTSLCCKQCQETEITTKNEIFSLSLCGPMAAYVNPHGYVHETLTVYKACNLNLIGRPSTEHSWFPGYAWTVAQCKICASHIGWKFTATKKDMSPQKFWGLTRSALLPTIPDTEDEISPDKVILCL
Cereblon/Ikaros, sequence (Q13422 whole entry): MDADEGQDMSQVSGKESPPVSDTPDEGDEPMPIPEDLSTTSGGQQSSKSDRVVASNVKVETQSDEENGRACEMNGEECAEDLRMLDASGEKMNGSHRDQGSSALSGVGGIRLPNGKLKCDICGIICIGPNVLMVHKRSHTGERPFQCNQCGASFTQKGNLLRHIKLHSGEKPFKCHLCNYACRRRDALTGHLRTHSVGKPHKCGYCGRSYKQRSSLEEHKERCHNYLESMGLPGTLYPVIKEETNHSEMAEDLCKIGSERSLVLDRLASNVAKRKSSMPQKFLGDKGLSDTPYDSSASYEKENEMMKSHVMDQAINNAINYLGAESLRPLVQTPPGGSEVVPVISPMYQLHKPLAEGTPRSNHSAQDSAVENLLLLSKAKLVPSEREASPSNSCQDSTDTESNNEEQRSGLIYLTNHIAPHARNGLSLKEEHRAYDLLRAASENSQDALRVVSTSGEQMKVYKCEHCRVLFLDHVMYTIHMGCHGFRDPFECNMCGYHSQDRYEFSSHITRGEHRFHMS
Protein cereblon, sequence (Q96SW2 whole entry): as the sequence (Q96SW2 whole entry) above
Protein cereblon/Interleukin-1 receptor-associated kinase 4 (Homo sapiens, UniProt Q9NWZ3+Q96SW2), sequence (Q9NWZ3 whole entry): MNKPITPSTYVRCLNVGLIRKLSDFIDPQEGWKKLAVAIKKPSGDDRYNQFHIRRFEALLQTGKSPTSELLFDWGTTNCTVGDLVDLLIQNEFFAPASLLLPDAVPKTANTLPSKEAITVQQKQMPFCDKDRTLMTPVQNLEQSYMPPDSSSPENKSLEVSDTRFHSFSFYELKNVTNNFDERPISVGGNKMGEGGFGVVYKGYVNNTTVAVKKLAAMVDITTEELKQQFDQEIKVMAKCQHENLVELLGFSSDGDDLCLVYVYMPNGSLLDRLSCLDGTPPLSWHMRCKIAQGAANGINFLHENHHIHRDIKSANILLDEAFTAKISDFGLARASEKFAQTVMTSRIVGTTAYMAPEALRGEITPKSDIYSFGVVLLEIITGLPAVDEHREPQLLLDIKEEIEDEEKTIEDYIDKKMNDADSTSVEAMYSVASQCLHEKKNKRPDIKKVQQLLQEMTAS
Protein cereblon/Interleukin-1 receptor-associated kinase 4 (Homo sapiens, UniProt Q9NWZ3+Q96SW2), sequence (Q96SW2 whole entry): as the sequence (Q96SW2 whole entry) above
Protein cereblon/Interleukin-1 receptor-associated kinase 4 (Homo sapiens, UniProt Q96SW2+Q9NWZ3), sequence (Q9NWZ3 whole entry): as the sequence (Q9NWZ3 whole entry) above
Protein cereblon/Interleukin-1 receptor-associated kinase 4 (Homo sapiens, UniProt Q96SW2+Q9NWZ3), sequence (Q96SW2 whole entry): as the sequence (Q96SW2 whole entry) above

| SMILES | Kd [1] [nM] | IC50 [2] [nM] | DC50 [3] [nM] | IC50 ([4]; Homo sapiens, OCI-Ly10, 96 h) [nM] | DC50 [5] [nM] | Papp A→B at 2 h, 1 µM [6] [×10⁻⁶ cm/s] | microsomal CLint at 1 µM [7] [µL/min/mg] | microsomal CLint at 1 µM [8] [µL/min/mg] | F [9] [%] | Vd [10] [L/kg] | AUC [11] [µM·h] | half-life [12] [h] | IC50 ([4]; oci-ly10) [nM] |
| --- | --- | --- | --- | --- | --- | --- | --- | --- | --- | --- | --- | --- | --- |
| CC(C)(O)c1cc2nn(CCCCCNCCCNc3cccc4c3C(=O)N(C3CCC(=O)NC3=O)C4=O)cc2cc1NC(=O)c1cccc(C(F)(F)F)n1 (centres undefined) | 2.2 | 79 | 128 | 125 | 17 | 0.42 |  |  |  |  |  |  |  |
| CN(CCCO[C@H]1C[C@H](Nc2cccc3c2C(=O)N(C2CCC(=O)NC2=O)C3=O)C1)C[C@H]1CC[C@H](n2cc3cc(NC(=O)c4cccc(C(F)(F)F)n4)c(C(F)F)cc3n2)CC1 (some centres undefined) |  | 24 | 13 | 46 | 17 | 0.76 | 32 | 25 |  |  |  |  |  |
| O=C1CCC(N2C(=O)c3cccc(NCC4CC5(CCN(C[C@H]6CC[C@H](n7cc8cc(NC(=O)c9cccc(C(F)(F)F)n9)c(C(F)F)cc8n7)CC6)CC5)C4)c3C2=O)C(=O)N1 (some centres undefined) |  | 58 | 56 | 142 | 69 | 2.7 | < 1.8 | < 1.8 | 16 | 11 | 1.5 | 29 |  |
| CC(C)(O)c1cc2nn([C@H]3CC[C@H](CO)CC3)cc2cc1NC(=O)c1cccc(C(F)(F)F)n1 | 0.37 |  |  |  |  |  |  |  |  |  |  |  |  |
| CN(C[C@H]1CC[C@H](n2cc3cc(NC(=O)c4cccc(C(F)(F)F)n4)c(C(C)(C)O)cc3n2)CC1)[C@H]1CC[C@]2(CC1)C[C@H](Nc1cccc3c1C(=O)N(C1CCC(=O)NC1=O)C3=O)C2 (some centres undefined) |  | 8 | 6 | 78 | 57 | 2.1 | < 1.8 | < 1.8 |  |  |  |  |  |
| CN(CCCN(C)c1cccc2c1C(=O)N(C1CCC(=O)NC1=O)C2=O)C[C@H]1CC[C@H](n2cc3cc(NC(=O)c4cccc(C(F)(F)F)n4)c(C(C)(C)O)cc3n2)CC1 (some centres undefined) | 0.64 | 200 | 14 | 308 | 282 | 4.2 | 250 | 300 |  |  |  |  |  |
| COc1cc2nn([C@H]3CC[C@H](CN4CCC5(CC4)CC(CNc4cccc6c4C(=O)N(C4CCC(=O)NC4=O)C6=O)C5)CC3)cc2cc1NC(=O)c1cccc(C(F)(F)F)n1 (some centres undefined) |  | 66 | 16 | 84 | 43 | 1.3 | 1.6 | 2.7 | 11 | 11 | 1.88 | 25 |  |
| Nc1cccc2c1C(=O)N(C1CCC(=O)NC1=O)C2=O (centres undefined) [POMALIDOMIDE] |  |  |  | 1400 |  |  |  |  |  |  |  |  |  |
| CN(CCCOCCCNc1cccc2c1C(=O)N(C1CCC(=O)NC1=O)C2=O)C[C@H]1CC[C@H](n2cc3cc(NC(=O)c4cccc(C(F)(F)F)n4)c(C(C)(C)O)cc3n2)CC1 (some centres undefined) | 0.66 | 32 | 12 | 270 | 21 | 7.5 | 53 | 60 |  |  |  |  |  |
| CN(CCCO[C@H]1C[C@H](Nc2cccc3c2C(=O)N(C2CCC(=O)NC2=O)C3=O)C1)C[C@H]1CC[C@H](n2cc3cc(NC(=O)c4cccc(C(F)(F)F)n4)ccc3n2)CC1 (some centres undefined) |  | 24 | 33 | 75 | 10 | 5.5 | 11 | 102 |  |  |  |  |  |
| CN(CCCO[C@H]1C[C@@H](Nc2cccc3c2C(=O)N(C2CCC(=O)NC2=O)C3=O)C1)C[C@H]1CC[C@H](n2cc3cc(NC(=O)c4cccc(C(F)(F)F)n4)c(C(C)(C)O)cc3n2)CC1 (some centres undefined) | 0.34 | 75 | 43 | 166 | 10 | 2.8 | 16 | 26 |  |  |  |  |  |
| COc1cc2nn([C@H]3CC[C@H](CN(C)CCCO[C@H]4C[C@H](Nc5cccc6c5C(=O)N(C5CCC(=O)NC5=O)C6=O)C4)CC3)cc2cc1NC(=O)c1cccc(C(F)(F)F)n1 (some centres undefined) |  | 23 | 29 | 360 | 28 | 2.4 | 10 | 19 |  |  |  |  |  |
| CN(CCCNc1cccc2c1C(=O)N(C1CCC(=O)NC1=O)C2=O)C[C@H]1CC[C@H](n2cc3cc(NC(=O)c4cccc(C(F)(F)F)n4)c(C(C)(C)O)cc3n2)CC1 (some centres undefined) | 0.38 | 62 | 36 | 120 | 10 | 0.66 | 138 | 140 |  |  |  |  |  |
| CC(C)(O)c1cc2nn(-c3ccc(CO)cc3)cc2cc1NC(=O)c1cccc(C(F)(F)F)n1 | 3.5 |  |  |  |  |  |  |  |  |  |  |  |  |
| CC(C)(O)c1cc2nn(CCCCCCCCCNc3cccc4c3C(=O)N(C3CCC(=O)NC3=O)C4=O)cc2cc1NC(=O)c1cccc(C(F)(F)F)n1 (centres undefined) | 320 | > 1100 | 3300 | 588 | 55 |  |  |  |  |  |  |  |  |
| CN(C[C@H]1CC[C@H](n2cc3cc(NC(=O)c4cccc(C(F)(F)F)n4)c(C(C)(C)O)cc3n2)CC1)[C@H]1CC[C@@]2(CC1)C[C@H](Nc1cccc3c1C(=O)N(C1CCC(=O)NC1=O)C3=O)C2 (some centres undefined) |  | 5 | 13 |  | 19 | 2.9 | < 1.8 | < 1.8 |  |  |  |  | 134 |
| COc1cc2nn([C@H]3CC[C@H](CN4CC5(CC(CCNc6cccc7c6C(=O)N(C6CCC(=O)NC6=O)C7=O)C5)C4)CC3)cc2cc1NC(=O)c1cccc(C(F)(F)F)n1 (some centres undefined) |  | 27 | 8 | 48 | 9 | 1 | 1.6 | 0.79 | 4.2 | 29 | 0.13 | 17 |  |
